The conditions of series [1]: cited from earlier work.
The subject of a further series is KIM-1. The note with it: cited from earlier work.
For a further series, the system named is KYN-1. To be noted: cited from earlier work.
Series [2] can be described thus: peak plasma level after oral administration to rats. In kind it is in vivo. To be noted: orally administered to rats. The protocol: First, Burzynski et al. (Drugs Exptl. Clin. Res. 12 Suppl. 1, 11-16 (1986)) reported complete colony reduction of HBL-100 and Ki No. 1 tumor cell lines with 5.0 mg/mL of either phenylacetic acid or antineoplaston AS2-1. […] Under typical administration regimes of antineoplaston AS2-1, the peak plasma levels of phenylacetic acid are approximately […], roughly […] less than the cytostatic concentration observed in tissue culture experiments.

Series [3] relates to human breast cancer cell line MDA-MB-231. The note with it: cited from earlier work.
A further series has as its system KMCH-1. The note with it: cited from earlier work.
The conditions of series [4]: orally administered to rats; cited from earlier work.
For series [5] the following is noted: cited from earlier work. This is another data set of the same source.
Series [6] concerns human colon adenocarcinoma. The note with it: cited from earlier work.
A further series deals with rat Nb2 lymphoma. The note with it: cited from earlier work.
Another series deals with S180 cells. The note with it: mice implanted with S180 cells; cited from earlier work.
The next series deals with cancer. To be noted: clinical trials; cited from earlier work.
The subject of the next series is medulloblastoma. The note with it: cited from earlier work.
For series [7], the system named is chronic lymphocytic leukemia. To be noted: cited from earlier work.
For series [8], the system named is K562 erythroleukemia cells. To be noted: cited from earlier work.
The test system of series [9] is hormonally refractory prostate adenocarcinoma PC3. The note with it: cited from earlier work.
The subject of the next series is murine fibrosarcoma V7T. The note with it: cited from earlier work.
For a further series, the system named is neuroblastoma. To be noted: cited from earlier work.
The next series deals with ovarian carcinoma. To be noted: cited from earlier work.
The subject of series [10] is human promyelocytic leukemia HL-60. To be noted: cited from earlier work.
A further series relates to Ki-1. The note with it: cited from earlier work.
In series [11] the test system is premalignant mesenchymal C3H 10T1/2 cells. To be noted: cited from earlier work.
The next series deals with malignant melanoma. To be noted: cited from earlier work.
In another series the test system is astrocytoma. To be noted: cited from earlier work.
The test system of series [12] is breast carcinoma cell line HBL-100. To be noted: cited from earlier work.

As to `O=C1CCC(NC(=O)Cc2ccccc2)C(=O)N1` (centres unmarked) [3-phenylacetylamino-2,6-piperidinedione], the solubility in water entry in series [1] is given as “poorly soluble in water”. Moreover, the “inhibition of the growth curve” value (in the series with KIM-1; with KYN-1; in the series with KMCH-1; in series [6]; with rat Nb2 lymphoma) was “Dose-dependent inhibition” throughout. Moreover, the “peak plasma level, fold less than the cytostatic concentration in tissue culture” value in series [2] is reported as “roughly 10 fold”. Besides, in [3] (MDA-MB-231), the “concentration at which cytostasis was observed” value is 2.0 mg/mL. Besides, in [3], the “effect on cultured MDA-MB-231” value was “cytostatic effect”. Besides, the peak plasma level result in series [4] is listed as “approximately 0.2 mg/mL”. Further, in [5], the clearance in vivo result is listed as “rapidly cleared in vivo”. Also, the “cAMP levels in the livers and tumors of treated mice relative to control mice” value with S180 cells is on record as “significantly elevated”. Further, the “efficacy in treating cancer” value with cancer is given as “effective in treating cancer”.

Turning to `O=C(O)Cc1ccccc1` [phenylacetic acid], the “terminal differentiation or phenotypic reversion” value (with medulloblastoma; in series [7]; in [9]; with murine fibrosarcoma V7T; with neuroblastoma; in the series on ovarian carcinoma) was “promoted terminal differentiation or phenotypic reversion” each time. For the same compound, the “terminal differentiation or phenotypic reversion” value (in series [10]; in the series with malignant melanoma; in the series with astrocytoma) was “promoted terminal differentiation or phenotypic reversion” in each case. The hemoglobin production result in series [8] is recorded as “enhanced hemoglobin production”. Also, the “concentration giving complete colony reduction” value (in the series on Ki-1 (Ki No. 1); in series [12]) was 5.0 mg/mL each time. In addition, the growth inhibition entry (in the series with Ki-1 (Ki-1); in series [12]) was “dose-dependent growth inhibition” each time. The adipocyte conversion result in series [11] is listed as “caused adipocyte conversion”. In addition, in series [11] (in distinction to 5-aza-2-deoxycitidine), the “tumor progression in premalignant cells” value is reported as “did not cause tumor progression”.
